pIC50: −log10 of the molar value.

The target in this experiment is T1, human ACC2 (Homo sapiens, UniProt O00763).
T1 construct: made in house; host or cells: insect cells (baculoviral expression system)
T1 sequence (O00763 129-2458 limits assumed): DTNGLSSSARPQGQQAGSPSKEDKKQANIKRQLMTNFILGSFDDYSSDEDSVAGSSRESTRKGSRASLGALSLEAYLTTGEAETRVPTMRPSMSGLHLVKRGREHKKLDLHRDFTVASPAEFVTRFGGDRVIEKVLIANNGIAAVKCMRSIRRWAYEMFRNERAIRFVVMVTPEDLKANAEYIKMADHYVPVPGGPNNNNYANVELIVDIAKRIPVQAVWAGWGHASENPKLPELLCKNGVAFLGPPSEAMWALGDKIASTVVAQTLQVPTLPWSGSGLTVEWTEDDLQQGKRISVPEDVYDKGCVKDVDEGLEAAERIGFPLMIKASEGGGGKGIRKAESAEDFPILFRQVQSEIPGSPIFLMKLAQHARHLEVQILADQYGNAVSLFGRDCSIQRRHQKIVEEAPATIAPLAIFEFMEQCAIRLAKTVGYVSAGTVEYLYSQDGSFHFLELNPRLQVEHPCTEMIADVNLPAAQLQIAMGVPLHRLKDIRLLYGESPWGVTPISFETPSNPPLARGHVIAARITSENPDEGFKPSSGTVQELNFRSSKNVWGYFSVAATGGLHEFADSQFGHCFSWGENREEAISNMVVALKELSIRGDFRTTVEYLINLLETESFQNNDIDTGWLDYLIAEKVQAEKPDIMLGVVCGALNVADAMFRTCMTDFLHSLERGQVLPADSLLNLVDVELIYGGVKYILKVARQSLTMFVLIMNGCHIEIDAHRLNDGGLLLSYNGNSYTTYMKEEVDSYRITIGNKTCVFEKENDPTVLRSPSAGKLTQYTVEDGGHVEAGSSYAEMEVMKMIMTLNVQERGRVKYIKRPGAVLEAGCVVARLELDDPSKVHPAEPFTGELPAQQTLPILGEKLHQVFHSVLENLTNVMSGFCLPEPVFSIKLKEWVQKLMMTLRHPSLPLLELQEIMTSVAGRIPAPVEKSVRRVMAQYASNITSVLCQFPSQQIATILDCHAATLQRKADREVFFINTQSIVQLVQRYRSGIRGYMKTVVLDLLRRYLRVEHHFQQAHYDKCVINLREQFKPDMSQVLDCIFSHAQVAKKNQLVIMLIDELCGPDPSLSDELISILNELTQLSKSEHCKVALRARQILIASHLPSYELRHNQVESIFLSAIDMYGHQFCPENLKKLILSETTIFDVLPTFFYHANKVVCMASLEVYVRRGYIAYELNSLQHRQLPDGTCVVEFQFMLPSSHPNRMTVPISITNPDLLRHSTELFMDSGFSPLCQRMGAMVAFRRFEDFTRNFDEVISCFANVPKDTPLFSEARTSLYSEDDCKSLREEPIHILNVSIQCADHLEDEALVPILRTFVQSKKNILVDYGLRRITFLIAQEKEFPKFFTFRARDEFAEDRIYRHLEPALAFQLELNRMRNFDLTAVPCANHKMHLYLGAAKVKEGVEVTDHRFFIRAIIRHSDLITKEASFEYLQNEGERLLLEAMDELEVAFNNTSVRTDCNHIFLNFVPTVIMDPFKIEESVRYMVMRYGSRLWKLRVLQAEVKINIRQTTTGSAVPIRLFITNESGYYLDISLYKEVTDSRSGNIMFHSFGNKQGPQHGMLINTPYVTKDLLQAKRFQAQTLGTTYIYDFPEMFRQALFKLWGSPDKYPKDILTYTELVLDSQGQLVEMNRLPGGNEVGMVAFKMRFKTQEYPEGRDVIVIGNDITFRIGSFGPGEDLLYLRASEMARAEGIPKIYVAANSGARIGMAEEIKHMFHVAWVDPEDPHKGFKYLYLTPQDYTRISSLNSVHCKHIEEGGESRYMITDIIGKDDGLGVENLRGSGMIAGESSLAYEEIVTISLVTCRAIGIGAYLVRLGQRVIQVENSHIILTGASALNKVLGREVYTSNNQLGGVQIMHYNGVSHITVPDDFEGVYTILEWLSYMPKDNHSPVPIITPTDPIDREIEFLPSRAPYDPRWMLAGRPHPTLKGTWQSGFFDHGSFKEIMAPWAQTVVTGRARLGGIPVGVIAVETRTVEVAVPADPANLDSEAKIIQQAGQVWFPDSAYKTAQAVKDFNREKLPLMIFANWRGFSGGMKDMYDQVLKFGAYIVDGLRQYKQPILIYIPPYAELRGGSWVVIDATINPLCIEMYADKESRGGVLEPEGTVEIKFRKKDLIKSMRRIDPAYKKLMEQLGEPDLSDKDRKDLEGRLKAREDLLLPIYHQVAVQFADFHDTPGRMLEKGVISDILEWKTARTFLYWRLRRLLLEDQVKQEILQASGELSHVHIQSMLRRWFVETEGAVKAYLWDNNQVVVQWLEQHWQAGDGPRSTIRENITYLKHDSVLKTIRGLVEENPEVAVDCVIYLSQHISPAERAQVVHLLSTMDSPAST
Nature of the experiment: ACC2 assay, spectrophotometric 384 well assay (NADH-linked, coupled lactate dehydrogenase/pyruvate kinase). In kind it is biochemical. The note with it: ACC2 assay, hACC2 construct lacking 128 N-terminal amino acids, 25° C., 340 nm; read-out: IC50. Put shortly: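 ADP output tracked via pyruvate kinase/lactate dehydrogenase NADH oxidation, slope at 340 nm over 15 min, 25° C, with 500 μM ATP and 200 μM each acetyl-CoA and NADH. Enzyme: insect-cell-expressed human ACC2, N-terminal 128 residues deleted; pH 7.5 Tris with citrate, KHCO3. IC50 from four-parameter regression versus vehicle and no-acetyl-CoA controls.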
As usually defined, the pIC50 is −log10 of the IC50, conventionally taken in molar units. In the case of `CCOc1ccc(N2CCC(c3ccc([C@H](C)NC(=O)CC(=O)OC)cc3)CC2)cc1` [Example 31.1, (S)-Methyl 3-(1-(4-(1-(4-Ethoxyphenyl)piperidin-4-yl)phenyl)ethylamino)-3-oxopropanoate], the negative logarithm of the IC50 (pIC50) is 5.80.
The same measure for `CCOc1ccc(N2CCC(c3ccc([C@H](C)NC(=O)OC)cc3)CC2)c(OCC)c1` [Example 1.137]: 4.80.
With `CC(=O)N[C@@H](C)c1ccc(C2CCN(c3cccc(OC(C)c4ccccc4)c3)CC2)cc1` (stereo partly shown) [Example 9.18] the figure was 6.82.
As for `CC(=O)N[C@@H](C)c1ccc(C2CCN(c3cccc(O)c3)CC2)cc1` [Example 1.27, (S)—N-{1-(4-[1-(3-hydroxyphenyl)-piperidin-4-yl]-phenyl}-ethyl)-acetamide], the pIC50 was 5.24.
With `CC(=O)N[C@@H](C)c1ccc(C2CCN(c3ccc(Oc4ccccc4)nn3)CC2)cc1` [Example 3.10] the figure was 5.80; with `CC(=O)N[C@@H](C)c1ccc(C2CCN(c3ccc(C(F)(F)F)cn3)CC2)cc1` [Example 4.17], 6.36.
With `CC(=O)N[C@@H](C)c1ccc(C2CCN(c3ccc(O)cc3)CC2)cc1` [Example 1.48, (S)—N-{1-(4-[1-(4-Hydroxyphenyl)-piperidin-4-yl]-phenyl}-ethyl)-acetamide], the pIC50 was 4.95.
With `CC(=O)N[C@@H](C)c1ccc(C2CCN(c3ncc(C(=O)NCCC(N)=O)cn3)CC2)cc1` [Example 18.82], the pIC50 is 5.21.
`CC(=O)N[C@@H](C)c1ccc(C2CCN(c3ncc(-c4ccc(OCC5CC5)nc4)cn3)CC2)cc1` [Example 10.51]: the pIC50 was 5.82.
With `C[C@H](NC(=O)N(C)C)c1ccc(C2CCN(c3ncc(-c4ccc(F)cc4)cn3)CC2)cc1` [Example 10.108], the pIC50 was 7.05.
Turning to `CC(=O)N[C@@H](C)c1ccc(C2CCN(c3ccnc(NC4CCCC4)n3)CC2)cc1` [Example 11.61], the pIC50 was 5.89.
For `COc1ccc(N2CCC(c3ccc([C@H](C)NC(C)=O)cc3)CC2)cc1C1CC1` [Example 1.166], the pIC50 was 5.40.
With `C[C@H](NC(=O)C1CC1)c1ccc(C2CCN(c3ccc(OC4CCCC4)cc3)CC2)cc1` [Example 1.117], the pIC50 was 7.22.
Regarding `COCCOc1ccc(N2CCC(c3ccc([C@H](C)NC(C)=O)cc3)CC2)cc1C#N` [Example 8.20], the pIC50 is 4.92.
Turning to `C[C@H](NC(=O)N(C)C)c1ccc(C2CCN(c3ncc(-c4ccccc4)cn3)CC2)cc1` [Example 10.111], the pIC50 is 6.77.
For `CC(=O)N[C@@H](C)c1ccc(C2CCN(c3ccnc(OCC(C)C)c3)CC2)cc1` [Example 19.1, (S)—N-{1-[4-(2′-Isobutoxy-3,4,5,6-tetrahydro-2H-[1,4′]bipyridinyl-4-yl)-phenyl]-ethyl}-acetamide], the pIC50 was 6.96.
With `CC(=O)N[C@@H](C)c1ccc(C2CCN(c3ccnc(OCCc4ccccc4)n3)CC2)cc1` [Example 11.13], the negative-log IC50 (pIC50) was 5.34.
As to `CC(C)COc1ccc(N2CCC(c3ccc([C@H](C)NC(=O)C4CC4)cc3)CC2)nc1` [Example 1.118], the pIC50 is 6.92.
In the case of `CC(=O)N[C@@H](C)c1ccc(C2CCN(c3cc(-n4ccc(=N)cc4)ncn3)CC2)cc1` [Example 11.52], the pIC50 was 4.73.
Take `CC(=O)N[C@@H](C)c1ccc(C2CCN(c3cccc(C#N)n3)CC2)cc1` [Example 5.19]: the pIC50 is 6.00.
As for `C[C@H](NC(=O)C1CC1)c1ccc(C2CCN(c3cc(OC4CCC4)ncn3)CC2)cc1` [Example 20.2], the pIC50 is 6.66.
For the compound `C[C@H](NC(=O)C1CC1)c1ccc(C2CCN(c3ncc(-c4ccc(C#N)cc4)cn3)CC2)cc1` [Example 10.102], the pIC50 was 6.62.
With `CC#CCOc1cc(N2CCC(c3ccc([C@H](C)NC(C)=O)cc3)CC2)ncn1` [Example 11.19] the figure was 6.06; with `CC(=O)N[C@@H](C)c1ccc(C2CCN(c3cc(C#N)ccn3)CC2)cc1` [Example 5.28], 5.10; with `CC(=O)N[C@@H](C)c1ccc(C2CCN(c3nc4ccccc4s3)CC2)cc1` [Example 4.2], 5.89.
The same measure for `CC(=O)N[C@@H](C)c1ccc(C2CCN(c3ncc(C(=O)Nc4cc(C)on4)cn3)CC2)cc1` [Example 18.78]: 4.90; for `CC(=O)N[C@@H](C)c1ccc(C2CCN(c3ccc(F)c(C#N)c3)CC2)cc1` [Example 1.159]: 5.57.
On to `CC(=O)N[C@@H](C)c1ccc(C2CCN(c3ccc(-c4ccc(C#N)s4)cn3)CC2)cc1` [Example 10.308], for which the pIC50 is 7.10.
Turning to `CC(=O)N[C@@H](C)c1ccc(C2CCN(c3cc(N4CC5CCCC5C4)ncn3)CC2)cc1` (stereo partly shown) [Example 11.77], the negative-log IC50 (pIC50) was 6.55.
On to `CC(=O)N[C@@H](C)c1ccc(C2CCN(c3ncc(-c4ccccc4CC#N)cn3)CC2)cc1` [Example 10.97], for which the pIC50 was 5.09.
With `C=CCOc1cccc(N2CCC(c3ccc([C@H](C)NC(C)=O)cc3)CC2)c1` [Example 9.5] the figure was 6.59.
For the compound `CC(=O)N[C@@H](C)c1ccc(C2CCN(c3ccnc(OC4CCC4)c3)CC2)cc1` [Example 19.2], the negative-log IC50 (pIC50) is 7.40.
Regarding `CCN(C(C)=O)[C@@H](C)c1ccc(C2CCN(c3ccc(OCC4CC4)cc3)CC2)cc1` [Example 39.2], the pIC50 was 5.82.
On to `CC(=O)N[C@@H](C)c1ccc(C2CCN(c3ncc(-c4ccc(F)cc4C)cn3)CC2)cc1` [Example 10.60], for which the pIC50 is 6.41.
As to `CC(=O)N[C@@H](C)c1ccc(C2CCN(c3ncc(-c4ccc(C5CC5)cc4)cn3)CC2)cc1` [Example 10.41], the pIC50 is 5.72.
As to `COc1ccc(-c2cnc(N3CCC(c4ccc([C@H](C)NC(C)=O)cc4)CC3)nc2)cc1OC` [Example 10.35], the negative logarithm of the IC50 (pIC50) was 5.96.
For the compound `CC(=O)N[C@@H](C)c1ccc(C2CCN(c3ncc(F)cn3)CC2)cc1` [Example 4.40], the pIC50 is 6.03.
The same measure for `CC(C)Oc1ncc(F)c(N2CCC(c3ccc([C@H](C)NC(=O)C4CC4)cc3)CC2)n1` [Example 11.129]: 5.89; for `COc1ccccc1NC(=O)c1cnc(N2CCC(c3ccc([C@H](C)NC(C)=O)cc3)CC2)nc1` [Example 18.16]: 5.29.
Turning to `CC(=O)N[C@@H](C)c1ccc(C2CCN(c3ccnc(-c4ccc5c(c4)OCO5)n3)CC2)cc1` [Example 22.1, (S)—N-(1-{4-[1-(2-Benzo[1,3]dioxol-5-yl-pyrimidin-4-yl)-piperidin-4-yl]-phenyl}-ethyl)-acetamide], the pIC50 is 5.96.
In the case of `COc1cc(-c2cnc(N3CCC(c4ccc([C@H](C)NC(C)=O)cc4)CC3)nc2)ccn1` [Example 10.29], the pIC50 was 6.89.
On to `CCOc1cc(N2CCC(c3ccc([C@H](C)NC(C)=O)cc3)CC2)c(F)cn1` [Example 1.190], for which the pIC50 is 5.85.
Turning to `CC(C)Oc1cccc(N2CCC(c3ccc([C@H](C)NC(=O)C4CC4)cc3)CC2)c1` [Example 1.78], the pIC50 was 5.47.
With `CCOc1ncc(N2CCC(c3ccc([C@H](C)NC(C)=O)cc3)CC2)c(OC)n1` [Example 16.10] the figure was 6.03; with `CCOc1ccc(N2CCC(c3ccc([C@H](C)NC(=O)N(C)C(C)C)cc3)CC2)cc1` [Example 14.53], 5.31; with `CCOc1ccc(N2CCC(c3ccc([C@H](C)NS(=O)(=O)C4CCC4)cc3)CC2)cc1` [Example 17.3], 5.12.
With `CC(=O)NC(C)Cc1ccc(C2CCN(c3ccc4c(c3)OCCO4)CC2)cc1` (stereo not shown) [Example 2.4] the figure was 5.74; with `CC(=O)N[C@@H](C)c1ccc(C2CCN(c3ccc(OCC4(CC#N)CC4)cc3)CC2)cc1` [Example 27.3], 6.07.
The same measure for `C[C@H](NC(=O)C1CC1)c1ccc(C2CCN(c3ccc4c(c3)OCCO4)CC2)cc1` [Example 1.19]: 6.59.
On to `CC(=O)N[C@@H](C)c1ccc(C2CCN(c3cccc(C(=O)N4CCc5ccccc5C4)c3)CC2)cc1` [Example 29.1, (S)—N-(1-(4-(1-(3-(1,2,3,4-Tetrahydroisoquinoline-2-carbonyl)phenyl)piperidin-4-yl)phenyl)ethyl)acetamide], for which the pIC50 was 5.80.
Regarding `CC(=O)N[C@@H](C)c1ccc(C2CCN(c3ccc(-c4ccc(Cl)cc4)cn3)CC2)cc1` [Example 5.44], the pIC50 was 7.15.
With `C[C@H](NC(=O)N(C)C)c1ccc(C2CCN(c3ccc4c(c3)OCC(C)(C)CO4)CC2)cc1` [Example 1.58] the figure was 6.92; with `CCOc1ccc(N2CCC(c3ccc([C@H](C)NC(N)=O)cc3)CC2)cc1` [Example 14.5], 5.77.
As to `CCOc1ccc(N2CCC(c3ccc([C@H](C)NC(=O)N(C)C4CC4)cc3)CC2)cc1` [Example 14.50, (S)-1-Cyclopropyl-3-(1-{4-[1-(4-ethoxy-phenyl)-piperidin-4-yl]-phenyl}-ethyl)-1-methylurea], the pIC50 was 5.42.
On to `CC(=O)N[C@@H](C)c1ccc(C2CCN(c3cc(O[C@H]4CCOC4)ncn3)CC2)cc1` [Example 11.17], for which the pIC50 is 5.92.
In the case of `CC(=O)N[C@@H](C)c1ccc(C2CCN(c3ccc(OCC4CC4)cc3C#N)CC2)cc1` [Example 13.2], the pIC50 was 6.89.
With `CC(=O)N[C@@H](C)c1ccc(C2CCN(c3ncc4nc(-c5cccs5)oc4n3)CC2)cc1` [Example 5.7], the pIC50 is 7.30.
Regarding `COc1ccc(Nc2nccc(N3CCC(c4ccc([C@H](C)NC(C)=O)cc4)CC3)n2)cc1` [Example 11.54], the pIC50 is 5.43.
With `CC(=O)N[C@@H](C)c1ccc(C2CCN(c3ncc4nc(-c5ccc(C)s5)oc4n3)CC2)cc1` [Example 5.6], the negative-log IC50 (pIC50) is 7.22.
Turning to `CC(=O)N[C@@H](C)c1ccc(C2CCN(c3ccc(F)c(C)c3)CC2)cc1` [Example 1.155], the pIC50 is 6.39.
With `CC(=O)N[C@@H](C)c1ccc(C2CCN(c3ncc(OCC4CC4)cc3F)CC2)cc1` [Example 1.104], the negative-log IC50 (pIC50) was 6.70.

These data come from patent US9006450B2 (Boehringer Ingelheim International GmbH, priority 2010, dated 2015).
